Data: patent US6472348B1, “Pyridone derivatives and herbicides” (Kumiai Chemical Industry Co., Ltd., priority 1996, dated 2002)
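For Herbicidal effects Di in this document: grade of growth control; 5 = at least 90%; 4 = 70 to 90%; 3 = 50 to 70%; 2 = 30 to 50%; 1 = 10 to 30%; 0 = under 10%.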
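For Herbicidal effects Ec in this document: grade of growth control; 5 = at least 90%; 4 = 70 to 90%; 3 = 50 to 70%; 2 = 30 to 50%; 1 = 10 to 30%; 0 = under 10%.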
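For Herbicidal effects Mo in this document: grade of growth control; 5 = at least 90%; 4 = 70 to 90%; 3 = 50 to 70%; 2 = 30 to 50%; 1 = 10 to 30%; 0 = under 10%.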

These molecules were tested on corn (Ze) (assay: Test Example 7: crop plant selectivity by upland field soil treatment (corn), phytotoxicity). Settings: dose 6.3 g ai/10a, 21st day after application.
Format: in vivo
Parameters: scale not given here
Method: (§1) (Test on Crop Plant Selectivity by Upland Field Soil Treatment)
(§2) In a plastic pot (surface area: 600 cm^2) filled with sand, corn (Ze), green foxtail (Se), pale smartweed (Po), slender amaranth (Am), common lambsquarters (Ch) and China jute (Ab) were sown and covered with soil. […] The plants were then cultured in a green house, and the evaluation of the herbicidal effects and phytotoxicity was conducted on the 21st day after the application in accordance with the standards as identified in Table 47.
`CSc1cc(-c2ccc(C(F)(F)F)n(C)c2=O)c(F)cc1Cl` [Compound No. 1-87, 3-(4-chloro-2-fluoro-5-methylthiophenyl)-1-methyl-6-trifluoromethyl-2(1H)-pyridone] was tested, and the “Phytotoxicity Ze” value was 1.

What follows are molecules tested on bulrush (Sc) (assay: Test Example 1: herbicidal effects by paddy field soil treatment). Settings: 100 g of the active ingredient per 10 ares, 21st day after the application, index 0-5 of Table 47.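 Also: grade of growth control; 5 = at least 90%; 4 = 70 to 90%; 3 = 50 to 70%; 2 = 30 to 50%; 1 = 10 to 30%; 0 = under 10%.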
Format: in vivo
Procedure, shortened: (§3)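 Herbicidal effect was scored against a graded standard 21 days after treatment. Seeds were sown in puddled, leveled paddy soil flooded to 3 cm depth, and the active ingredient was applied at 100 g per 10 ares before greenhouse culture.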
In the case of `CSc1cc(-c2ccc(C(F)(F)F)n(C)c2=O)c(F)cc1Cl` [Compound No. 1-87, 3-(4-chloro-2-fluoro-5-methylthiophenyl)-1-methyl-6-trifluoromethyl-2(1H)-pyridone], the “Herbicidal effects Sc” value is reported as 5.

The molecules below were run on monochoria (Mo) in the same assay as above. Settings: 100 g of the active ingredient per 10 ares, 21st day after the application, index 0-5 of Table 47.
Format: in vivo
Procedure, shortened: as §3
In the case of `CSc1cc(-c2ccc(C(F)(F)F)n(C)c2=O)c(F)cc1Cl` [Compound No. 1-87, 3-(4-chloro-2-fluoro-5-methylthiophenyl)-1-methyl-6-trifluoromethyl-2(1H)-pyridone], the “Herbicidal effects Mo” value is reported as 5.

The molecules below were run on barnyardgrass (Ec) in the same assay as above. Settings: 100 g of the active ingredient per 10 ares, 21st day after the application, index 0-5 of Table 47.
Format: in vivo
Procedure, shortened: as §3
With `CSc1cc(-c2ccc(C(F)(F)F)n(C)c2=O)c(F)cc1Cl` [Compound No. 1-87, 3-(4-chloro-2-fluoro-5-methylthiophenyl)-1-methyl-6-trifluoromethyl-2(1H)-pyridone] the “Herbicidal effects Ec” value was 5.

Each molecule was assayed on common lambsquarters (Ch) (assay: Test Example 2: herbicidal effects by upland field soil treatment). Settings: 100 g of the active ingredient per 10 ares, 21st day after the application, index 0-5 of Table 47.
Format: in vivo
Excerpt: (§4) (Test on Herbicidal Effects by Upland Field Soil Treatment)
`CSc1cc(-c2ccc(C(F)(F)F)n(C)c2=O)c(F)cc1Cl` [Compound No. 1-87, 3-(4-chloro-2-fluoro-5-methylthiophenyl)-1-methyl-6-trifluoromethyl-2(1H)-pyridone] was tested, and the “Herbicidal effects Ch” value was 5.

The molecules below were run on Digitaria ciliaris (Di) in the same assay as above. Settings: 100 g of the active ingredient per 10 ares, 21st day after the application, index 0-5 of Table 47.
Format: in vivo
Excerpt: as §4
In the case of `CSc1cc(-c2ccc(C(F)(F)F)n(C)c2=O)c(F)cc1Cl` [Compound No. 1-87, 3-(4-chloro-2-fluoro-5-methylthiophenyl)-1-methyl-6-trifluoromethyl-2(1H)-pyridone], the “Herbicidal effects Di” value is reported as 5.

What follows are molecules tested on slender amaranth (Am) in the same assay as above. Settings: 100 g of the active ingredient per 10 ares, 21st day after the application, index 0-5 of Table 47.
Format: in vivo
Excerpt: as §4
`CSc1cc(-c2ccc(C(F)(F)F)n(C)c2=O)c(F)cc1Cl` [Compound No. 1-87, 3-(4-chloro-2-fluoro-5-methylthiophenyl)-1-methyl-6-trifluoromethyl-2(1H)-pyridone] was tested, and the “Herbicidal effects Am” value was 5.

These molecules were tested on rice flatsedge (Ci) in the same assay as above. Settings: 100 g of the active ingredient per 10 ares, 21st day after the application, index 0-5 of Table 47.
Format: in vivo
Excerpt: as §4
`CSc1cc(-c2ccc(C(F)(F)F)n(C)c2=O)c(F)cc1Cl` [Compound No. 1-87, 3-(4-chloro-2-fluoro-5-methylthiophenyl)-1-methyl-6-trifluoromethyl-2(1H)-pyridone] was tested, and the “Herbicidal effects Ci” value was 5.

What follows are molecules tested on pale smartweed (Po) in the same assay as above. Settings: 100 g of the active ingredient per 10 ares, 21st day after the application, index 0-5 of Table 47.
Format: in vivo
Excerpt: as §4
In the case of `CSc1cc(-c2ccc(C(F)(F)F)n(C)c2=O)c(F)cc1Cl` [Compound No. 1-87, 3-(4-chloro-2-fluoro-5-methylthiophenyl)-1-methyl-6-trifluoromethyl-2(1H)-pyridone], the “Herbicidal effects Po” value is reported as 5.

These molecules were tested on barnyardgrass (Ec) in the same assay as above. Settings: 100 g of the active ingredient per 10 ares, 21st day after the application, index 0-5 of Table 47.
Format: in vivo
Excerpt: as §4
With `CSc1cc(-c2ccc(C(F)(F)F)n(C)c2=O)c(F)cc1Cl` [Compound No. 1-87, 3-(4-chloro-2-fluoro-5-methylthiophenyl)-1-methyl-6-trifluoromethyl-2(1H)-pyridone] the “Herbicidal effects Ec” value was 5.

Each molecule was assayed on green foxtail (Se) (assay: Test Example 7: crop plant selectivity by upland field soil treatment (corn), herbicidal effects). Settings: dose 6.3 g ai/10a, 21st day after application.
Format: in vivo
Parameters: scale not given here
Method: as §1, §2
In the case of `CSc1cc(-c2ccc(C(F)(F)F)n(C)c2=O)c(F)cc1Cl` [Compound No. 1-87, 3-(4-chloro-2-fluoro-5-methylthiophenyl)-1-methyl-6-trifluoromethyl-2(1H)-pyridone], the “Herbicidal effects Se” value is reported as 5.

Each molecule was assayed on common lambsquarters (Ch) in the same assay as above. Settings: dose 6.3 g ai/10a, 21st day after application.
Format: in vivo
Parameters: scale not given here
Method: as §1, §2
In the case of `CSc1cc(-c2ccc(C(F)(F)F)n(C)c2=O)c(F)cc1Cl` [Compound No. 1-87, 3-(4-chloro-2-fluoro-5-methylthiophenyl)-1-methyl-6-trifluoromethyl-2(1H)-pyridone], the “Herbicidal effects Ch” value is reported as 5.

These molecules were tested on China jute (Ab) in the same assay as above. Settings: dose 6.3 g ai/10a, 21st day after application.
Format: in vivo
Parameters: scale not given here
Method: as §1, §2
In the case of `CSc1cc(-c2ccc(C(F)(F)F)n(C)c2=O)c(F)cc1Cl` [Compound No. 1-87, 3-(4-chloro-2-fluoro-5-methylthiophenyl)-1-methyl-6-trifluoromethyl-2(1H)-pyridone], the “Herbicidal effects Ab” value is reported as 5.

Each molecule was assayed on slender amaranth (Am) in the same assay as above. Settings: dose 6.3 g ai/10a, 21st day after application.
Format: in vivo
Parameters: scale not given here
Method: as §1, §2
`CSc1cc(-c2ccc(C(F)(F)F)n(C)c2=O)c(F)cc1Cl` [Compound No. 1-87, 3-(4-chloro-2-fluoro-5-methylthiophenyl)-1-methyl-6-trifluoromethyl-2(1H)-pyridone] was tested, and the “Herbicidal effects Am” value was 5.

These molecules were tested on pale smartweed (Po) in the same assay as above. Settings: dose 6.3 g ai/10a, 21st day after application.
Format: in vivo
Parameters: scale not given here
Method: as §1, §2
For `CSc1cc(-c2ccc(C(F)(F)F)n(C)c2=O)c(F)cc1Cl` [Compound No. 1-87, 3-(4-chloro-2-fluoro-5-methylthiophenyl)-1-methyl-6-trifluoromethyl-2(1H)-pyridone], the “Herbicidal effects Po” value was 5.

What follows are molecules tested on green foxtail (Se) (assay: Test Example 6: crop plant selectivity by upland field soil treatment (soybean), herbicidal effects). Settings: dose 6.3 g ai/10a, 21st day after application.
Format: in vivo
Parameters: scale not given here
Method: as §1
(§5) In a plastic pot (surface area: 600 cm^2) filled with sand, soybean (Gl), Diaitaria ciliaris (Di), green foxtail (Se), Johnsongrass (So), pale smartweed (Po), slender amaranth (Am), common lambsquarters (Ch) and China jute (Ab) were sown and covered with soil. […] The plants were then cultured in a green house, and the evaluation of the herbicidal effects and phytotoxicity was conducted on the 21st day after the application in accordance with the standards as identified in Table 47. Symbol—represents “not tested”.
`CSc1cc(-c2ccc(C(F)(F)F)n(C)c2=O)c(F)cc1Cl` [Compound No. 1-87, 3-(4-chloro-2-fluoro-5-methylthiophenyl)-1-methyl-6-trifluoromethyl-2(1H)-pyridone] was tested, and the “Herbicidal effects Se” value was 5.

These molecules were tested on common lambsquarters (Ch) in the same assay as above. Settings: dose 6.3 g ai/10a, 21st day after application.
Format: in vivo
Parameters: scale not given here
Method: as §1, §5
`CSc1cc(-c2ccc(C(F)(F)F)n(C)c2=O)c(F)cc1Cl` [Compound No. 1-87, 3-(4-chloro-2-fluoro-5-methylthiophenyl)-1-methyl-6-trifluoromethyl-2(1H)-pyridone] was tested, and the “Herbicidal effects Ch” value was 5.

What follows are molecules tested on China jute (Ab) in the same assay as above. Settings: dose 6.3 g ai/10a, 21st day after application.
Format: in vivo
Parameters: scale not given here
Method: as §1, §5
`CSc1cc(-c2ccc(C(F)(F)F)n(C)c2=O)c(F)cc1Cl` [Compound No. 1-87, 3-(4-chloro-2-fluoro-5-methylthiophenyl)-1-methyl-6-trifluoromethyl-2(1H)-pyridone] was tested, and the “Herbicidal effects Ab” value was 5.

These molecules were tested on slender amaranth (Am) in the same assay as above. Settings: dose 6.3 g ai/10a, 21st day after application.
Format: in vivo
Parameters: scale not given here
Method: as §1, §5
For `CSc1cc(-c2ccc(C(F)(F)F)n(C)c2=O)c(F)cc1Cl` [Compound No. 1-87, 3-(4-chloro-2-fluoro-5-methylthiophenyl)-1-methyl-6-trifluoromethyl-2(1H)-pyridone], the “Herbicidal effects Am” value was 5.
